By IC50 is commonly meant the midpoint of a concentration-inhibition curve.

The record followed here is US8946266B2, “Substituted triazole and imidazole derivatives as gamma secretase modulators” (Janssen Pharmaceuticals, Inc., priority 2009, dated 2015).

SMILES strings stand for the structures. Read-outs that look alike come from different tables or passages of the source.

One test has as its system Aβtotal. As to the kind of experiment: γ-secretase-modulating activity, Method 2: Aβtotal Alphalisa in supernatant of SKNBE2 cells carrying APP 695-wild type (Table 3b). The conditions noted are these: overnight, read-out: IC50 Aβtot. In kind it is cell-based. The procedure: (§1) Screening was carried out using SKNBE2 cells carrying the APP 695-wild type, grown in Dulbecco's Modified Eagle's Medium/Nutrient mixture F-12 (DMEM/NUT-mix F-12) (HAM) provided by Invitrogen (cat no. 10371-029) containing 5% Serum/Fe supplemented with 1% non-essential amino acids, 1-glutamine 2 mM, Hepes 15 mM, penicillin 50 U/ml (units/ml) en streptomycin 50 μg/ml. Cells were grown to near confluency.
(§2) The screening was performed using a modification of the assay as described in Citron et al (1997) Nature Medicine 3: 67. Briefly, cells were plated in a 384-well plate at 10^4 cells/well in Ultraculture (Lonza, BE12-725F) supplemented with 1% glutamine (Invitrogen, 25030-024), 1% non-essential amino acid (NEAA), penicillin 50 U/ml en streptomycin 50 μg/ml in the presence of test compound at different test concentrations. The cell/compound mixture was incubated overnight at 37° C., 5% CO2. The next day the media were assayed by two sandwich immuno-assays, for Aβ42 and Aβtotal.
(§3) Aβtotal and Aβ42 concentrations were quantified in the cell supernatant using the Aphalisa technology (Perkin Elmer). Alphalisa is a sandwich assay using biotinylated antibody attached to streptavidin coated donorbeads and antibody conjugated to acceptor beads. In the presence of antigen, the beads come into close proximity. The excitation of the donor beads provokes the release of singlet oxygen molecules that trigger a cascade of energy transfer in the acceptor beads, resulting in light emission. To quantify the amount of Aβ42 in the cell supernatant, monoclonal antibody specific to the C-terminus of Aβ42 (JRF/cAβ42/26) was coupled to the receptor beads and biotinylated antibody specific to the N-terminus of Aβ (JRF/AβN/25) was used to react with the donor beads. To quantify the amount of Aβ total in the cell supernatant, monoclonal antibody specific to the N-terminus of Aβ (JRF/AβN/25) was coupled to the receptor beads and biotinylated antibody specific to the mid region of Aβ (biotinylated 4G8) was used to react with the donor beads.
(§4) The sigmoidal dose response curves were analyzed using non-linear regression analysis with percentage of the control plotted against the log concentration of the compound. A 4-parameter equation was used to determine the IC50.
(§5) The IC50 values are shown in Table 3b (Aβtot means Aβtotal).
For orientation: Bead proximity is the source of the signal in Alpha formats.

The next test has as its system Aβ42. As to the kind of experiment: γ-secretase-modulating activity, Method 2: Aβ42 Alphalisa in supernatant of SKNBE2 cells carrying APP 695-wild type (Table 3b). In kind it is cell-based. The note with it: overnight. How it is done: as §1, §2, §3
To obtain the values reported in Table 3b, the data were calculated as percentage of the maximum amount of amyloid Beta 42 measured in the absence of the test compound.
as §4, §5

As for `COc1cc(-c2nc(Nc3ccc(C#N)cc3F)n(C)n2)ccc1-n1cnc(C)c1` [Compound 227], the IC50 in the test on Aβtotal was found to be 891 nM; with Aβ42 it was 676 nM.
In the same order, the values of `Cc1cn(-c2ccc(-c3nc(Nc4ccccc4C)n(C)n3)cc2OC(F)(F)F)cn1` [Compound 98] are greater than 10000 nM and 288 nM.
In the same order, the values of `COCc1ccc(F)c(Nc2nc(-c3ccc(-n4cnc(C)c4)c(OC)c3)nn2C)c1` [Compound 331] are greater than 10000 nM and 56 nM.
Consider `COc1cc(-c2nc3c(Nc4cccc(C(F)(F)F)c4)cccn3n2)ccc1-n1cnc(C)c1` [Compound 289], for which the figures for the IC50 in the test on Aβtotal and in the test on Aβ42 were greater than 10000 nM and 708 nM, respectively.
Regarding `COc1cc(-c2nc(Nc3cccc(Cl)c3Cl)n(C)n2)ccc1-n1cnc(C)c1` [Compound 119], the half-inhibitory concentration (IC50) was greater than 10000 nM in the test on Aβtotal and 54 nM with Aβ42.
The matching figures for `COc1cc(-c2nc(Nc3cccc(C#N)c3)n(C)n2)ccc1-n1cnc(C)c1` [Compound 224]: greater than 10000 nM and 646 nM.
Consider `COc1cc(-c2nc(Nc3cc(C#N)ccc3F)n(C)n2)ccc1-n1cnc(C)c1` [Compound 226], for which the IC50 with Aβtotal was greater than 10000 nM; in the test with Aβ42 it was 417 nM.
In the same order, the values of `COc1cc(-c2nc3n(n2)CCOC3c2ccccc2C(F)(F)F)ccc1-n1cnc(C)c1` (stereo not shown) [Compound 316] are greater than 10000 nM and 661 nM.
As to `COc1cc(-c2ncn(-c3cccc(C(F)(F)F)c3)n2)ccc1-n1cnc(C)c1` [Compound 65], the IC50 with Aβtotal is greater than 10000 nM; in the test with Aβ42, 2240 nM.
The matching figures for `COc1cc(-c2nc3n(n2)CCCC3c2ccc(F)cc2F)ccc1-n1cnc(C)c1` (stereo not shown) [Compound 259]: greater than 10000 nM and 158 nM.
The matching figures for `COc1cc(-c2nc(Nc3cc(Cl)cc(Cl)c3)n(C)n2)ccc1-n1cnc(C)c1` [Compound 115]: greater than 10000 nM and 102 nM.
Consider `COc1cc(-c2nc(Nc3cc(C(C)(C)C)ccc3F)n(C)n2)ccc1-n1cnc(C)c1` [Compound 357], for which half-maximal inhibition in the test with Aβ42 (IC50) was put at 7 nM.
On the same count and under the same terms, next, `COc1cc(-c2nc3n(n2)CCOC3c2cc(C(F)(F)F)ccc2C)ccc1-n1cnc(C)c1` (stereo not shown) [Compound 371]: 40 nM.
`COc1cc(-c2nc3n(n2)CCCC32CCCCC2)ccc1-n1cnc(C)c1` [Compound 270]: the half-maximal inhibitory concentration (IC50) in the test on Aβtotal was greater than 10000 nM; with Aβ42 it was 170 nM.
On to `CCn1nc(-c2ccc(-n3cnc(C)c3)c(OC)c2)nc1Nc1cc(C(F)(F)F)ccc1F` [Compound 135], for which the half-inhibitory concentration (IC50) in the test on Aβtotal is greater than 10000 nM; in the test on Aβ42, 26 nM.
The matching figures for `COc1cc(-c2nc(Nc3cc(F)c(F)cc3Cl)n(C)n2)ccc1-n1cnc(C)c1` [Compound 121]: greater than 10000 nM and 123 nM.
In the same order, the values of `Cc1cn(-c2ccc(-c3nc(Nc4cc(C(F)(F)F)ccc4F)n(C)n3)cc2OC(F)(F)F)cn1` [Compound 139] are greater than 10000 nM and 794 nM.
The matching figures for `COc1cc(-c2nc(-c3cc(Cl)ccc3C)n[nH]2)ccc1-n1cnc(C)c1` [Compound 297]: greater than 10000 nM and 263 nM.
On to `COc1cc(-c2nc3n(n2)CCC[C@@H]3c2cc(C(F)(F)F)ccc2C)ccc1-n1cnc(C)c1` [Compound 339], for which the concentration for half-maximal inhibition (IC50) is greater than 10000 nM in the test on Aβtotal and 155 nM in the test with Aβ42.
The matching figures for `COc1cc(-c2nc(Nc3cccc(C(F)(F)F)c3)n(C(C)C)n2)ccc1-n1cnc(C)c1` [Compound 133]: 2340 nM and 31 nM.
In the same order, the values of `COc1cc(-c2nc(N3CCc4ccccc4C3)n(C)n2)ccc1-n1cnc(C)c1` [Compound 81] are greater than 10000 nM and 224 nM.
In the same order, the values of `COc1cc(-c2nc(Nc3ccc(=O)n(C)c3)n(C)n2)ccc1-n1cnc(C)c1` [Compound 242] are greater than 10000 nM and greater than 10000 nM.
On to `COc1cc(-c2nc3n(n2)CCOC3c2cc(OC(F)(F)F)ccc2F)ccc1-n1cnc(C)c1` (stereo not shown) [Compound 165], for which the figures for the half-inhibitory concentration (IC50) in the test on Aβtotal and in the test on Aβ42 were greater than 10000 nM and 138 nM, respectively.
The matching figures for `COc1cc(-c2nc(N3CCCOc4ccccc43)n(C)n2)ccc1-n1cnc(C)c1` [Compound 327]: greater than 10000 nM and 1180 nM.
In the same order, the values of `COc1cc(Nc2nc(-c3ccc(-n4cnc(C)c4)c(OC)c3)nn2C)ccc1Cl` [Compound 191] are greater than 10000 nM and 28 nM.
The matching figures for `COc1nc(-c2nc(Nc3ccc(F)c(C(F)(F)F)c3)n(C)n2)ccc1-n1cnc(C)c1` [Compound 171]: greater than 15000 nM and 42 nM.
In the case of `COc1cc(-c2nc(Nc3cc(S(C)(=O)=O)ccc3F)n(C)n2)ccc1-n1cnc(C)c1` [Compound 309], the IC50 with Aβtotal is greater than 10000 nM; with Aβ42 it was 1070 nM.
The matching figures for `COc1cc(F)ccc1Nc1nc(-c2ccc(-n3cnc(C)c3)c(OC)c2)nn1C` [Compound 215]: greater than 10000 nM and 269 nM.
Consider `COc1cc(-c2nc(Nc3cc(F)c(C(F)(F)F)cc3F)n(C)n2)ccc1-n1cnc(C)c1` [Compound 141], for which the half-inhibitory concentration (IC50) in the test on Aβtotal was greater than 10000 nM; in the test with Aβ42, 47 nM.
The matching figures for `COc1cc(-c2nc(Nc3cccc(C(F)(F)F)c3C)n(C)n2)ccc1-n1cnc(C)c1` [Compound 164]: greater than 10000 nM and 30 nM.
In the same order, the values of `CCOc1ccccc1Nc1nc(-c2ccc(-n3cnc(C)c3)c(OC)c2)nn1C` [Compound 205] are greater than 10000 nM and 100 nM.
In the case of `COc1cc(-c2nc(Nc3cc(Cl)ccc3C)n(C)n2)ccc1-n1cnc(C)c1` [Compound 174], the values for the IC50 with Aβtotal and with Aβ42 were 7410 nM and 20 nM, respectively.
On to `COc1cc(-c2nc(C3CCc4ccccc4N3C)n(C)n2)ccc1-n1cnc(C)c1` (stereo not shown) [Compound 366], for which the IC50 in the test with Aβ42 (Homo sapiens) amounted to 513 nM.
As for `CNc1nc(-c2ccc(-n3cnc(C)c3)c(OC)c2)nn1-c1cccc(C(F)(F)F)c1` [Compound 93], the half-inhibitory concentration (IC50) was greater than 10000 nM in the test with Aβtotal (Homo sapiens) and 282 nM in the test on Aβ42 (Homo sapiens).
Turning to `COc1cc(-c2nc(C(=O)c3cccc(C(F)(F)F)c3)n(C(C)C)n2)ccc1-n1cnc(C)c1` [Compound 91], the half-maximal inhibitory concentration (IC50) in the test with Aβtotal (Homo sapiens) is greater than 10000 nM; in the test on Aβ42 (Homo sapiens), 2340 nM.
With `COc1cc(-c2nc3n(n2)CCCC3c2ccccc2F)ccc1-n1cnc(C)c1` (stereo not shown) [Compound 257], the IC50 in the test on Aβtotal is greater than 10000 nM; in the test with Aβ42, 148 nM.
In turn, `COc1nc(-c2nc3n(n2)CCC(C)C3c2ccc(F)cc2)ccc1-n1cnc(C)c1` (stereo not shown) [Compound 368] gave an IC50 with Aβ42 of 66 nM.
Still for that read-out and setting: next, `COc1cc(-c2nc(Nc3cc(OCC4CC4)ccc3F)n(C)n2)ccc1-n1cnc(C)c1` [Compound 356]: 20 nM; `COc1cc(-c2nc(Nc3ccccc3OC(C)C)n(C)n2)ccc1-n1cnc(C)c1` [Compound 367]: 78 nM.
Turning to `COc1cc(-c2nc3n(n2)CCC(C)C3c2ccc(F)cc2)ccc1-n1cnc(C)c1` (stereo not shown) [Compound 369], the IC50 with Aβ42 was determined as 123 nM.
Same read-out and setting: next, `COc1cc(-c2nc(Nc3ccc(C)cc3F)n(C)n2)ccc1-n1cnc(C)c1` [Compound 352]: 60 nM; `COc1ccc(F)c(C2CCCn3nc(-c4ccc(-n5cnc(C)c5)c(OC)c4)nc32)c1` (stereo not shown) [Compound 364]: 83 nM; `COc1nc(-c2nc3n(n2)CCOC3c2cc(OC(F)(F)F)ccc2F)ccc1-n1cnc(C)c1` (stereo not shown) [Compound 374]: 62 nM.
Turning to `COc1cc(-c2nc(C3CCc4ccccc4N3)n(C)n2)ccc1-n1cnc(C)c1` (stereo not shown) [Compound 365], it took 447 nM to reach half-maximal inhibition in the test with Aβ42 (Homo sapiens) (IC50).
In the test on Aβ42, `CCOc1ccc(F)c(Nc2nc(-c3ccc(-n4cnc(C)c4)c(OC)c3)nn2C)c1` [Compound 354] came in with a half-maximal inhibitory concentration (IC50) of 22 nM.
Still for that read-out and setting: next, `COc1cc(-c2nc(Nc3cc(C)ccc3F)n(C)n2)ccc1-n1cnc(C)c1` [Compound 350]: 44 nM; `COc1cc(-c2nc(Nc3cc(OC4CCOC4)ccc3F)n(C)n2)ccc1-n1cnc(C)c1` (racemic) [Compound 358]: 62 nM.
Still for that read-out and setting: next, `COc1cc(-c2nc3n(n2)C(C)CCC3c2ccc(F)cc2C)ccc1-n1cnc(C)c1` (stereo not shown) [Compound 363]: 407 nM.
The same measure, in the same setting: next, `COc1nc(-c2nc3n(n2)CCC[C@@H]3c2ccc(F)cc2C)ccc1-n1cnc(C)c1` [Compound 360]: 240 nM; `COCCOc1ccc(F)c(Nc2nc(-c3ccc(-n4cnc(C)c4)c(OC)c3)nn2C)c1` [Compound 355]: 135 nM.
Take `COc1nc(-c2nc3n(n2)CCOC3c2cc(C(F)(F)F)ccc2C)ccc1-n1cnc(C)c1` (stereo not shown) [Compound 370]: the IC50 with Aβ42 turned out to be 36 nM.
The same measure, in the same setting: next, `COc1cc(-c2nc(Nc3cc(C)ccc3C(F)(F)F)n(C)n2)ccc1-n1cnc(C)c1` [Compound 351]: 28 nM.
